Usually IC50 stands for the concentration at which inhibition is half-maximal. Higher therefore signals weaker potency in that assay.

The target of the assay is BRD4-BD1 (Homo sapiens (Human), UniProt O60885). The experiment in a line: BRD4-H4 tetraacetylated peptide inhibition AlphaScreen. It counts as binding. Conditions: 15 nM GST-BRD4-BD1 (aa 44-168), 15 nM biotinylated Acetyl-Histone H4 (Lys5, 8, 12, 16) peptide. The protocol: Compounds are diluted in serial dilution 1:5 in assay buffer from 10 mM stock in DMSO (100 μM start concentration) in white OptiPlate-384 (PerkinElmer). […] Subsequently, 6 μl of premixed AlphaLISA Glutathione Acceptor Beads and AlphaScreen Streptavidin Donor Beads from PerkinElmer (in assay buffer at a concentration of 10 μg/ml each) are added and the samples are incubated for 30 min at RT in the dark (shaking 300 rpm). Afterwards, the signal is measured in a PerkinElmer Envision HTS Multilabel Reader using the AlphaScreen protocol from PerkinElmer. […] Negative control values are entered as low basis value when using the software GraphPad Prism for calculations. Furthermore, a positive control (probe molecule JQ1+ with protein/peptide mix) is pipetted. Determination of IC50 values are carried out using GraphPad Prism 3.03 software (or updates thereof).
On the technique in general: In Alpha technology, singlet oxygen from a donor bead excites a nearby acceptor bead.
`Cc1nnc2c(NC(C)C)cc(-c3cn(C)nc3Oc3ccccc3)nn12` [II-18] displayed an IC50 of 31 nM.
With `Cc1nnc2c(N[C@@H]3CCOC3)cc(N(C)Cc3ccccc3)nn12` [Example I-4] the figure was 25 nM; with `COCCN1CCC(Nc2cc(N(C)Cc3ccccc3)nn3c(C)nnc23)CC1` [III-3, N6-Benzyl-N8-[1-(2-methoxy-ethyl)-piperidin-4-yl]-3,N6-dimethyl-[1,2,4]triazolo[4,3-b]pyridazine-6,8-diamine], 3 nM; with `Cc1nnc2c(N[C@H]3CCOC3)cc(N(C)Cc3ccccc3)nn12` [Example I-3], 67 nM.
For the compound `Cc1nnc2c(Cl)cc(-c3cn(C)nc3Cc3ccccc3)nn12` [II-12, 3-benzyl-4-{8-chloro-3-methyl-[1,2,4]triazolo[4,3-b]pyridazin-6-yl}-1-methyl-1H-pyrazole], the half-maximal inhibitory concentration (IC50) amounted to 51 nM.
For the compound `Cc1nnc2c(NC(C)C)cc(-c3cnn(C)c3Oc3ccccc3)nn12` [II-17], the midpoint of inhibition, the IC50, lay at 140 nM. Compared with the last compound, the IC50 is about 2.7-fold higher.
For `CSc1cc(-c2cn(C)nc2Cc2ccccc2)nn2c(C)nnc12` [II-13] the value was 2000 nM; for `Cc1nnc2c(NC3CCN(C)CC3)cc(-c3cnn(C)c3Cc3ccccc3)nn12` [II-1, [6-(5-Benzyl-1-methyl-1H-pyrazol-4-yl)-3-methyl-[1,2,4]triazolo[4,3-b]pyridazin-8-yl]-(1-methyl-piperidin-4-yl)-amine], 10 nM.
For `CCN1CCC(Nc2cc(N(C)Cc3ccccc3)nn3c(C)nnc23)CC1` [III-2, N6-Benzyl-N8-(1-ethyl-piperidin-4-yl)-3,N6-dimethyl-[1,2,4]triazolo[4,3-b]pyridazine-6,8-diamine] the value was 3 nM; for `CNc1cc(-c2cn(C)nc2Oc2ccccc2)nn2c(C)nnc12` [II-15], 29 nM; for `CC(=O)N1CCC(Nc2cc(N(C)Cc3ccccc3)nn3c(C)nnc23)CC1` [III-1, 1-{4-[6-(Benzyl-methyl-amino)-3-methyl-[1,2,4]triazolo[4,3-b]pyridazin-8-ylamino]-piperidin-1-yl}-ethanone], 61 nM.
For `Cc1nnc2c(NC(C)C)cc(-c3cn(C)nc3Oc3ccccn3)nn12` [II-20] the value was 43 nM.
Consider `Cc1nnc2c(NC3CCN(C)CC3)cc(-c3cnn(C)c3Oc3ccccc3)nn12` [II-7], for which half-maximal inhibition (IC50) required 8 nM.
For `Cc1nnc2c(NC3CCN(C)CC3)cc(-c3cn(C)nc3Cc3ccccc3)nn12` [II-9] the value was 3 nM.
For `Cc1nnc2c(NC3CCN(S(=O)(=O)C4CCN(C)CC4)CC3)cc(N(C)Cc3ccccc3)nn12` [III-9] the value was 40 nM; for `Cc1nnc2c(NC3CCN(S(=O)(=O)CCCN(C)C)CC3)cc(N(C)Cc3ccccc3)nn12` [III-5], 37 nM; for `Cc1cc(-c2cn(C)nc2Cc2ccccc2)nn2c(C)nnc12` [II-11], 64 nM.
For `CNc1cc(N(C)Cc2ccccc2)nn2c(C)nnc12` [Example I-5] the value was 83 nM; for `Cc1nnc2c(NC3CCN(S(=O)(=O)C4CCNC4)CC3)cc(N(C)Cc3ccccc3)nn12` (centres unmarked) [III-6], 33 nM; for `Cc1nnc2c(NC(C)C)cc(-c3cn(C)nc3Cc3ccccc3)nn12` [II-19], 105 nM.
Consider `Cc1nnc2c(NC3CCN(C)CC3)cc(-c3cc4ccccc4n3Cc3ccccc3)nn12` [II-5, [6-(1-Benzyl-1H-indol-2-yl)-3-methyl-[1,2,4]triazolo[4,3-b]pyridazin-8-yl]-(1-methyl-piperidin-4-yl)-amine], for which the IC50 is 105 nM. In other words, the sub-micromolar range.
For `Cc1nnc2c(NC3CCN(C)CC3)cc(-c3ccnn3Cc3ccccc3)nn12` [II-2] the value was 117 nM.
With `CNc1cc(N(C)Cc2ccc(F)cc2)nn2c(C)nnc12` [Example I-6] the figure was 74 nM; with `COCCN1CCC(Nc2cc(-c3cnn(C)c3Oc3ccccc3)nn3c(C)nnc23)CC1` [II-6], 8 nM; with `CNc1cc(-c2cnn(C)c2Oc2ccccc2)nn2c(C)nnc12` [II-14], 26 nM.
Compound `Cc1nnc2c(NC3CCN(S(=O)(=O)C4CCN(C)C4)CC3)cc(N(C)Cc3ccccc3)nn12` (centres unmarked) [III-10] came in with an IC50 of 44 nM.
With `Cc1nnc2c(NC3CCN(S(=O)(=O)CCN)CC3)cc(N(C)Cc3ccccc3)nn12` [III-8] the figure was 32 nM; with `CNc1cc(-c2cn(C)nc2Oc2ccccn2)nn2c(C)nnc12` [II-21], 72 nM; with `Cc1nnc2c(NC3CCN(C=O)CC3)cc(N(C)Cc3ccccc3)nn12` [III-4], 40 nM.
For `Cc1nnc2c(NC(C)C)cc(-c3cn(C(C)C)nc3Cc3ccccc3)nn12` [II-16] the value was 711 nM; for `COCCN1CCC(Nc2cc(-c3cn(C)nc3Cc3ccccc3)nn3c(C)nnc23)CC1` [II-8], 4 nM.
Consider `Cc1nnc2c(NC3CCN(S(=O)(=O)CCN(C)C)CC3)cc(N(C)Cc3ccccc3)nn12` [III-11], for which the IC50 amounted to 39 nM. This IC50 is about 9.8-fold higher than that of the compound before.
For `Cc1nnc2c(NC3CCN(S(=O)(=O)C4CCNCC4)CC3)cc(N(C)Cc3ccccc3)nn12` [III-7] the value was 57 nM; for `Cc1nnc2c(NC3CCN(C)CC3)cc(-c3c(Cc4ccccc4)c4ccccc4n3C)nn12` [II-4], 37 nM.
For `Cc1nnc2c(NC3CCOCC3)cc(N(C)Cc3ccccc3)nn12` [Example I-2] the value was 83 nM.
With `Cc1nnc2c(NC3CCN(C)CC3)cc(N(C)Cc3ccccc3)nn12` [Example I-1, N6-Benzyl-3,N6-dimethyl-N8-(1-methyl-piperidin-4-yl)-[1,2,4]triazolo[4,3-b]pyridazine-6,8-diamine] the figure was 3 nM; with `CNc1cc(-c2cn(C)nc2Cc2ccccc2)nn2c(C)nnc12` [II-10], 38 nM; with `Cc1nnc2c(NC3CCN(C)CC3)cc(-c3[nH]c4ccccc4c3Cc3ccccc3)nn12` [II-3], 3 nM.
